The target in assay [1] is T1, Tyk2 (Homo sapiens, UniProt P29597).
T1 construct: endogenous, MDA-MB-231 cells
Description: click-chemistry pull-down from treated cells, competed by xanthatin. The format is cell-based.

Assay [2] addresses T2, JAK1 (Homo sapiens, UniProt P23458).
T2 construct: endogenous, MDA-MB-231 cells
The assay is described as above. The format is cell-based.

Assay [3] addresses T3, IKKα (Homo sapiens, UniProt O15111).
T3 construct: gene CHUK; endogenous, MDA-MB-231 cells
T3 sequence (O15111 1-745): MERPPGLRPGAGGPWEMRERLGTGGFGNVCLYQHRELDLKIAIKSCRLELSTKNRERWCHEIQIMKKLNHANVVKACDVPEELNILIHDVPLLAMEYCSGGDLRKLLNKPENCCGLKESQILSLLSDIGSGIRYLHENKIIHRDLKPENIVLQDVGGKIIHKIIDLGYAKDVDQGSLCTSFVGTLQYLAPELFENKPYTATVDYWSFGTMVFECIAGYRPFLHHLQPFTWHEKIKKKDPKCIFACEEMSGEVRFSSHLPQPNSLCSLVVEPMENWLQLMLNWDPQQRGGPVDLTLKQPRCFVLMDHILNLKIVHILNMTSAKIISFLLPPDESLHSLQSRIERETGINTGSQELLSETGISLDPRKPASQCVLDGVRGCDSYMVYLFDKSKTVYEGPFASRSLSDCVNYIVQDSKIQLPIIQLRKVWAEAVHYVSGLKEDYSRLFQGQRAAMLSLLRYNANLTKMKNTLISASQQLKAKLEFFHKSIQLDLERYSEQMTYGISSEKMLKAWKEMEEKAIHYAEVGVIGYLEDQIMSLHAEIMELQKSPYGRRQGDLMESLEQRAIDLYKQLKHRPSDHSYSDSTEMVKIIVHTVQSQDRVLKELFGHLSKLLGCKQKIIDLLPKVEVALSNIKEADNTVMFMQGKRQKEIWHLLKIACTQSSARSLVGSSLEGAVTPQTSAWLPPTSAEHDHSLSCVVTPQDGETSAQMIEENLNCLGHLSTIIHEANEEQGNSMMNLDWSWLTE
Described as above. The format is cell-based.

In assay [4] the target is T4, JAK2 (Homo sapiens, UniProt O60674).
T4 construct: JAK2-FLAG immunoprecipitated from HEK293 cells
T4 sequence (O60674 whole entry): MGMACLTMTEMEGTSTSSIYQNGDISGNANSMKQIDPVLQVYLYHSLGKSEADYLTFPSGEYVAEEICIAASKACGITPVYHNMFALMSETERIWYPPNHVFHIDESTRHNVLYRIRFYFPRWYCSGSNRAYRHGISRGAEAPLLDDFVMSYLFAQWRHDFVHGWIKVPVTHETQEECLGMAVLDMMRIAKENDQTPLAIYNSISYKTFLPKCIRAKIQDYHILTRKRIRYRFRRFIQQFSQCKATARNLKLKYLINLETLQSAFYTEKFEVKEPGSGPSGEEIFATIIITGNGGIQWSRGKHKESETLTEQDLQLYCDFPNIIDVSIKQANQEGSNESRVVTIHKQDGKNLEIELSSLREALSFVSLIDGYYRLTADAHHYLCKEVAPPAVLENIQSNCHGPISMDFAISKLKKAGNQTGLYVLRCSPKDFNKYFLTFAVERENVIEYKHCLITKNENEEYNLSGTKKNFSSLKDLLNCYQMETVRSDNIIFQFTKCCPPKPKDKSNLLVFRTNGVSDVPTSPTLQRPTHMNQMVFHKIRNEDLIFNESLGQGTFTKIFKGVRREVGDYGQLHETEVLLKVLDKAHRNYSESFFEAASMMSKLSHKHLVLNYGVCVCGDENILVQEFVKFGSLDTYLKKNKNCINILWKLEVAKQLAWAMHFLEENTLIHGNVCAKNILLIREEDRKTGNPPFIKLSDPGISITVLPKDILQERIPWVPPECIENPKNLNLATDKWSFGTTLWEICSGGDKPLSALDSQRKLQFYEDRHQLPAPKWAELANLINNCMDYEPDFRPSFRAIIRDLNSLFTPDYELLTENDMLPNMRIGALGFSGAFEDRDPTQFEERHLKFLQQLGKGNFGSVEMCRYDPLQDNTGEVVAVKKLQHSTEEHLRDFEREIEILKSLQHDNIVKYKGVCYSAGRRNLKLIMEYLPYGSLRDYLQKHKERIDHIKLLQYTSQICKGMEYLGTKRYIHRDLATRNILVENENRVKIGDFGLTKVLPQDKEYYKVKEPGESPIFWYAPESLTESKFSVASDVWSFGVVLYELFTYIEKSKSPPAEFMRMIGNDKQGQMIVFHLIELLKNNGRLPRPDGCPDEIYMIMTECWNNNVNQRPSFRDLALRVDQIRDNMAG
The experiment in a line: in-gel fluorescence after click labelling of immunoprecipitated protein. The class given is binding.

Assay [5] addresses T5, IKKβ (Homo sapiens, UniProt O14920).
T5 construct: gene IKBKB; IKKβ-FLAG immunoprecipitated from HEK293 cells
T5 sequence (O14920 1-756): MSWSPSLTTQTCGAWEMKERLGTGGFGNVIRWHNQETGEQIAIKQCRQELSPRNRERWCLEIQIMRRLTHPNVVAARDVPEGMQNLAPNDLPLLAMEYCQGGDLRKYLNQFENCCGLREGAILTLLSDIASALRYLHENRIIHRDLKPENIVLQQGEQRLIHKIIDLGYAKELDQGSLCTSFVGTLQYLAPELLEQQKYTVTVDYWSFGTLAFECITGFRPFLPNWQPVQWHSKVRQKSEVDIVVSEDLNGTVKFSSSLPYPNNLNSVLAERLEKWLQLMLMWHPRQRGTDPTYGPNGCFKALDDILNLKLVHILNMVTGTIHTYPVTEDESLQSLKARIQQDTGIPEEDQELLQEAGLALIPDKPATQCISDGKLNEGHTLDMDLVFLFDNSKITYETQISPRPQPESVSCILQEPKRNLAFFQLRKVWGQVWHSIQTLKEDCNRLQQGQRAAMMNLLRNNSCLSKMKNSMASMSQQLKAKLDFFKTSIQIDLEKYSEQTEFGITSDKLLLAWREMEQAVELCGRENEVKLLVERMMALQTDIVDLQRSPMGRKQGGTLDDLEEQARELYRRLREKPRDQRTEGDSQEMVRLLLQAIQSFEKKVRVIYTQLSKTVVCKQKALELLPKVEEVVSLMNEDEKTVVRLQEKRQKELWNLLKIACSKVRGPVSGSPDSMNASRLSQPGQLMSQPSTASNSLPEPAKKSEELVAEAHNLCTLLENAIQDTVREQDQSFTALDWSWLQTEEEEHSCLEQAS
The assay is described as above. The format is binding.

Assay [6] addresses T2, JAK1. Description: competition of Alk-Xa pull-down in cells. The format is cell-based.
The target of assay [7] is T5, IKKβ. The experiment in a line: in vitro kinase assay with immunoprecipitated IKKβ; adducts confirmed by LC-MS/MS. The class given is biochemical.
Assay [8] has as its target T1, Tyk2. Description: competition of Alk-Xa pull-down in cells. The class given is cell-based.
Assay [9] concerns the target T4, JAK2. Description: in vitro kinase assay with immunoprecipitated JAK2; adduct confirmed by LC-MS/MS. The class given is biochemical.
Assay [10] addresses T3, IKKα. Description: competition of Alk-Xa pull-down in cells. The format is cell-based.

SMILES strings stand for the structures.

The source of these data is article PMC6533482, “Xanthatin inhibits STAT3 and NF‐κB signalling by covalently binding to JAK and IKK kinases” (Journal of Cellular and Molecular Medicine, 2019).

T2 sequence (P23458 whole entry): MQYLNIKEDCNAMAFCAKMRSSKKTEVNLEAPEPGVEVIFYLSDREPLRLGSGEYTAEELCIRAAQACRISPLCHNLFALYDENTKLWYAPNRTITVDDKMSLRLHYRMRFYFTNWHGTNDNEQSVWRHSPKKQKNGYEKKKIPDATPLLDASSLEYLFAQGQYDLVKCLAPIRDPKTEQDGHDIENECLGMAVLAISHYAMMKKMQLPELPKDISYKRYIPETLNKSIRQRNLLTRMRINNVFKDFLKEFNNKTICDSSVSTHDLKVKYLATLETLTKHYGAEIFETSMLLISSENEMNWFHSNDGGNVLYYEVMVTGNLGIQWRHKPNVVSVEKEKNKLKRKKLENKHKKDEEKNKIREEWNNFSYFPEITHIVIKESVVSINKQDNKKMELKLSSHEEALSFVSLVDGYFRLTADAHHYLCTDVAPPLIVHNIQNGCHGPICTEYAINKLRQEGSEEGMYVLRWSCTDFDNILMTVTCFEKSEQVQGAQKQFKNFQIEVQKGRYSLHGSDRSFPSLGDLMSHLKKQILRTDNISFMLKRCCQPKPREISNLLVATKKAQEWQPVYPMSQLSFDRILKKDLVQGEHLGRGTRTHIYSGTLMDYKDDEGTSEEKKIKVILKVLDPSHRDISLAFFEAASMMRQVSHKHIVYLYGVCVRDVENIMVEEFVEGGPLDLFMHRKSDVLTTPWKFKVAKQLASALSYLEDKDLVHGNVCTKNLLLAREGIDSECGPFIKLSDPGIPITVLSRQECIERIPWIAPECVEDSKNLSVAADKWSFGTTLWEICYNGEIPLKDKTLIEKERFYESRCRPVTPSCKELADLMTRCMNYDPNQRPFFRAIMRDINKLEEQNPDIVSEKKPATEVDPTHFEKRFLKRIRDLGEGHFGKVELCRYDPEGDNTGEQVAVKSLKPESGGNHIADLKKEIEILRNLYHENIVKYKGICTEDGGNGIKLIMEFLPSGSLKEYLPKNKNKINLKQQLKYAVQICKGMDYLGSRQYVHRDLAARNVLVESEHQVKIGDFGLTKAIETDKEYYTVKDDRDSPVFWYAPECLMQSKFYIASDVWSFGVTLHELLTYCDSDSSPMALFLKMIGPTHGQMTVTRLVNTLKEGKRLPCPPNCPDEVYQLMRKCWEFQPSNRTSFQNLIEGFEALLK
T1 sequence (P29597 whole entry): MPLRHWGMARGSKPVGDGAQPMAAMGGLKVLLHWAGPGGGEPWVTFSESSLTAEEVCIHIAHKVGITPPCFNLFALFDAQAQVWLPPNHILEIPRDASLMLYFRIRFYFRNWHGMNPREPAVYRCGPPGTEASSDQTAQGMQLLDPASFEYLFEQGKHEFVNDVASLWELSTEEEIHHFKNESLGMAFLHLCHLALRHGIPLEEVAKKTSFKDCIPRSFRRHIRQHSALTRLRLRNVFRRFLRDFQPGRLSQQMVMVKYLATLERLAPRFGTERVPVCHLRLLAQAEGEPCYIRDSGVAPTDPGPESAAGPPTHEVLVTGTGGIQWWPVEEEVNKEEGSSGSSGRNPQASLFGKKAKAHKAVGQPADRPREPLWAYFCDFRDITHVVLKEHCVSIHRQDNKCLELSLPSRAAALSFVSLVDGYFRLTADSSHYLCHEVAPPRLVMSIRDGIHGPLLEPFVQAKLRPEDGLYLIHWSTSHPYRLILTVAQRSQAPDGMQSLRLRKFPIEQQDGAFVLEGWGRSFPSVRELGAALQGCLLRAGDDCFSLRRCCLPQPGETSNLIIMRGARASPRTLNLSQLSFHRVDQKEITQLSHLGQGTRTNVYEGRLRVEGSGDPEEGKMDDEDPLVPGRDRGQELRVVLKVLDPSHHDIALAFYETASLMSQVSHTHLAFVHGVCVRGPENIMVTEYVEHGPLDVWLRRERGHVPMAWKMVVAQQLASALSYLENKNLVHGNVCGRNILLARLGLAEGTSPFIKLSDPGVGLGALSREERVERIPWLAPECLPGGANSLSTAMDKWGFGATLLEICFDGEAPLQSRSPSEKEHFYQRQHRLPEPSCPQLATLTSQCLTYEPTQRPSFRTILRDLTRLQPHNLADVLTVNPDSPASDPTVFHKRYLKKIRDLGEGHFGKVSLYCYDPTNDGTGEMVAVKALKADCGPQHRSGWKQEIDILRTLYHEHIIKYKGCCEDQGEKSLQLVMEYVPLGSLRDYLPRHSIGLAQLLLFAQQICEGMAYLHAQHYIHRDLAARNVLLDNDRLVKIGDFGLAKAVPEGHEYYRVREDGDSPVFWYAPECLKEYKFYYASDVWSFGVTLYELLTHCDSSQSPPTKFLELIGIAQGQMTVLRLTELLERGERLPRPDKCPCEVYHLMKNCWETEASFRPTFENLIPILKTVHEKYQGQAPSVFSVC

Turning to `C#CCNC(=O)/C=C/C1=CC[C@@H]2C(=C)C(=O)O[C@H]2C[C@@H]1C` [Alk-Xa, Alk‐Xa], the “click-chemistry pull-down from treated cells, competed by xanthatin” value is “JAK1, JAK2, Tyk2, IKKα and IKKβ were pulled down with the Alk‐Xa” on Tyk2 [1]; “JAK1, JAK2, Tyk2, IKKα and IKKβ were pulled down with the Alk‐Xa” at JAK1 [2]; “JAK1, JAK2, Tyk2, IKKα and IKKβ were pulled down with the Alk‐Xa” on IKKα [3]. Besides, the “in-gel fluorescence after click labelling of immunoprecipitated protein” value on JAK2 [4] is “fluorescence intensity of JAK2 and IKKβ was proportional to the dosage of Alk‐Xa, indicating that Alk‐Xa covalently bound”; at IKKβ [5], “fluorescence intensity of JAK2 and IKKβ was proportional to the dosage of Alk‐Xa, indicating that Alk‐Xa covalently bound”.

On to `C=C1C(=O)O[C@H]2C[C@H](C)C(/C=C/C(C)=O)=CC[C@H]12` [Xa, xanthatin], for which the “competition of Alk-Xa pull-down in cells” value on JAK1 [6], at Tyk2 [8] and at IKKα [10] was “the interactions could be competed away by excessive unlabelled xanthatin” in each case. In addition, the IC50 (as a rule, the concentration needed to halve the response being measured) on IKKβ [7] was 11.3 µM; on JAK2 [9] it was 4.08 µM.
